Experimental data: patent US5302526A, “Recombinant DNA enclosed amphiphilic leader sequences for the production and purification of fusion proteins” (Creative BioMolecules, Inc., priority 1993, dated 1994)
Read-outs that look alike come from different tables or passages of the source. Ends that are not written are not given here.

Assay: HPLC partitioning of synthetic helix dimers between aqueous mobile phase and nonpolar C-18 stationary phase as a function of pH
Format: physicochemical
Procedure: To determine whether the properties of the synthetic helices corresponded to their expected properties, each was tested on an HPLC column using a nonpolar (C-18) stationary phase. A sample of synthetic peptide solution was then injected, and the elution time (time to emerge from the bottom of the column) measured. The void time for the column was measured by injecting a small charged molecule such as citrate or acetate. The fraction of the sample solubilized in the aqueous, mobile phase (versus that bound to the hydrophobic, immobile phase) is determined by the void time divided by the sample elution time. A sample emerging in the void time is completely soluble in the mobile phase, whereas if it emerges in two void times it is half solubilized in the mobile phase and half bound to the stationary phase. By this procedure the affinity of each of the synthetic peptides for the aqueous, mobile phase, relative to the hydrophobic, stationary phase, could be measured as a function of pH. The HPLC column was run isocratically (constant eluent) using one of several different buffer systems. […] For that reason a value of 13% was used for all the buffer systems in that at that concentration the elution time for the peptides was determined to be on the order of 2 to 20 times the void time. […] The column was allowed to equilibrate as judged by 214 nm absorbance baseline stability. […]

Sequence	fraction of the helix partitioned into the aqueous mobile phase (partition coefficient) as a function of pH (C-18 HPLC, isocratic, 13% acetonitrile, trend with increasing pH)	fraction of the helix partitioned into the aqueous mobile phase (partition coefficient) as a function of pH
AHNLNEAAHNLNEA [Helix P-81, (Ala--His--Asn--Leu--Asn--Glu--Ala)2]	fraction of the helix partitioning into the mobile phase increases as pH increases	–
AKNLNEAAKNLNEA [Helix P-72, (Ala--Lys--Asn--Leu--Asn--Glu--Ala)2]	–	as the pH increased the peptide partitioned increasingly into the hydrophobic (stationary) phase
